Patent US10028948B2, “Chromone derivative as a dopamine D3 receptor antagonist for its use for the treatment of autism spectrum disorder” (PIERRE FABRE MEDICAMENT, priority 2013, dated 2018)
Structures can show the parent of a compound that is named as a salt.

How the values were obtained:
[1] = target: T1, human recombinant dopamine D3 receptor (Homo sapiens, UniProt P35462); test: Inhibition of [3H]spiperone binding, human recombinant dopamine D3 receptor; conditions: cells expressing human recombinant D3 receptor, read-out: inhibition constant (Ki), dopamine D3 receptor
T1 construct: expressed in transfected cells
Method: (§1) The N-(3-{4-[4-(8-oxo-8H-[1,3]dioxolo[4,5-g]chromen-7-yl)-butyl]-piperazin-1-yl}-phenyl)-methanesulfonamide hydrochloride was evaluated in vitro as a dopamine D3 receptor ligand and modulator of the activity of that receptor in accordance with the invention in cells expressing human recombinant dopamine D3 receptor or human recombinant dopamine D2 receptor. The inhibition constant (Ki) was measured by inhibition of the binding of [^3H] spiperone as described by Cussac et al., in Naunyn-Schmiedeberg's Arch. Pharmacol. 2000, vol 361, p 569-572.

[2] = target: T2, human recombinant dopamine D2 receptor (Homo sapiens, UniProt P14416); test: Inhibition of [3H]spiperone binding, human recombinant dopamine D2 receptor; conditions: human recombinant D2 vs D3 receptor
T2 construct: expressed in transfected cells
Method: as §1

[3] = tested on: social interaction behavior of offspring of sodium valproate- or saline-treated female rats; test: Social interaction in the valproic acid rat model of autism; type: in vivo, Sprague-Dawley rats; conditions: acute administration, scored 10 min, n=10
Method: The N-(3-{4-[4-(8-oxo-8H-[1,3]dioxolo[4,5-g]chromen-7-yl)-butyl]-piperazin-1-yl}-phenyl)-methanesulfonamide hydrochloride was tested on social interaction of offspring of female rats which had been administered valproic acid as a sodium salt. The experimental settings of the valproic acid rat model of autism were adapted from published data (Dendrinos et al., Front. Integr. Neurosci. 2011, vol 5, art 68; Markram et al., Neuropsychopharm. 2007, vol 33, p 901-912; Schneider et al., Neuropsychopharm. 2005, vol 30, p 80-89).
Pregnant (embryonic day 8 max) female Sprague-Dawley rats [OFA (SD) Charles River Lyon, France] were quarantined for 4 days. Animals were group housed (2 per cage) in a full bottom cage (ML-H Cage, 370×235×180 mm, L×W×H; floor surface 870 cm^2) in an environmentally controlled room (temperature 21±1° C.; relative humidity 55±5%) under a 12-h light/dark cycle (lights on at 07:00 AM) with food (A04, Safe, Augy, France) and filtered water (0.2 μm pore diameter) freely available. Until weaning of offspring, animals were changed only once per week in order to disturb them as little as possible. Environmental enrichment (nesting material) was provided.
On embryonic days 12 and 13 (E12-E13), females were weighed and received three intraperitoneal injections of 2.4 ml/kg of sodium valproate (NaVPA, 200 mg/kg). Sodium valproate was dissolved in 0.9% saline for a concentration of 83.3 mg/ml, pH 7.3. Control dams received three intraperitoneal injections of saline (2.4 ml/kg). After the third injection, females were individually housed in ML-H type cages and allowed to raise their litters. Offspring were weaned between 21 to 23 days postnatally.
One sodium valproate- or saline-exposed rat and an unfamiliar naïve rat were placed in opposite corners of an arena (black arena 70 cm×70 cm×30 cm, L×I×H). Individual behavior related to social interaction such as following grooming, sniffing or biting the other rat as well as climbing over the other rat, initiated by the tested rat toward the unfamiliar rat were scored for a period of 10 min. […]

T1 sequence (P35462 whole entry): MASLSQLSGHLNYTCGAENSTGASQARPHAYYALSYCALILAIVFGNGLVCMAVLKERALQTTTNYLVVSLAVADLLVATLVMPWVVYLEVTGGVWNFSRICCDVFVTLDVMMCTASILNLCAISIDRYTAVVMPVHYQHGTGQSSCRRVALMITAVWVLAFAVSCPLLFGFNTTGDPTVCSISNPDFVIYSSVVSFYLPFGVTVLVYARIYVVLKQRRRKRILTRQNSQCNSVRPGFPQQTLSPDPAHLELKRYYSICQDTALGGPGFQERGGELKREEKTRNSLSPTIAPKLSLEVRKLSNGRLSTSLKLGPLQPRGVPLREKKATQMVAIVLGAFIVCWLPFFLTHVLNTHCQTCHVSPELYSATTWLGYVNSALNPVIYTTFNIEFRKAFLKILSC
T2 sequence (P14416 whole entry): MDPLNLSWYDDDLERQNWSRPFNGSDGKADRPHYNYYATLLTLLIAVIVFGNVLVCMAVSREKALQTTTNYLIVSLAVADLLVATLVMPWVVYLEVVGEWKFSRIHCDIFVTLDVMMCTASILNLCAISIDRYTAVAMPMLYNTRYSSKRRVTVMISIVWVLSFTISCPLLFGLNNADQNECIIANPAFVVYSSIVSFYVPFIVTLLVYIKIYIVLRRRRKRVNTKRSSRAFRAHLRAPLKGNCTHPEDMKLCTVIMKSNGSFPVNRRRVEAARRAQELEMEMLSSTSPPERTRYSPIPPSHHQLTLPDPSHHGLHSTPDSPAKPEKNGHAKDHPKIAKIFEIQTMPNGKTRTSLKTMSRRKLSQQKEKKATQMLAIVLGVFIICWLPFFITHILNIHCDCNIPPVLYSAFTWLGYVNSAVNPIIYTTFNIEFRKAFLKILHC

- Ki [1]: 0.17 nM
- affinity for dopamine D2 receptor relative to D3 (times weaker) [2]: 71 times
Structure (SMILES): CS(=O)(=O)Nc1cccc(N2CCN(CCCCc3coc4cc5c(cc4c3=O)OCO5)CC2)c1 [compound according to the invention, N-(3-{4-[4-(8-oxo-8H-[1,3]dioxolo[4,5-g]chromen-7-yl)-butyl]-piperazin-1-yl}-phenyl)-methanesulfonamide hydrochloride]
- effect on social interaction deficits induced by prenatal exposure to sodium valproate ([3]; 0.63 mg/kg): significantly reduced
- effect on social interaction deficits induced by prenatal exposure to sodium valproate ([3]; 2.5 mg/kg): completely reversed
- effect on social interaction behavior ([3]; offspring of saline-treated mothers): no significant effects
